Laboratory results reported in US20240425484A1, “INHIBITORS OF TYK2” (Atomwise Inc., priority 2023, published 2024).

Legend:
[1] = biological target: T1, TYK2-JH2 (Homo sapiens, UniProt P29597); assay: TYK2-JH2 HTRF binding assay (ligand efficiency); conditions: calculated (Equation 1) from IC50 of the TYK-JH2 binding assay
T1 construct: TYK JH2 enzyme mix (ChemPartner: CP20210818A-BV); purchased ChemPartner CP20210818A-BV
Protocol: The following example describes the TYK2-JH2 HTRF binding assay used to determine the ligand efficiency of the TYK2 inhibitors.
To calculate ligand efficiency, Equation 1 is applied: […]
in which IC50 comes from the binding assay used to determine compound potency.
TYK JH2 enzyme mix (ChemPartner: CP20210818A-BV), tracer (ChemPartner: CP-0029472-051) and mAb Anti-6HIS Tb cryptate Gold (Cisbio: Cat No. 61HI2TLA) mix were prepared in assay buffer (10 mM MgCl2, 20 mM HEPES pH 7.5, 0.01% Triton X-100, 1 mM DTT). Compounds diluted in DMSO (Final Concentrations 0.1 to 0.000005 [μM]) and enzyme mix (0.5 nM Final Concentration) were added to 384 well plates, briefly centrifuged and incubated at room temperature for 10 minutes. After incubation, tracer mix (Tracer-35 nM final concentration); (MAb Anti-6HIS Tb cryptate Gold-0.5X final)) was added, briefly centrifuged then incubate at room temperature 60 minutes. After incubation, plates were read by Envision TR-FRET (Ex340/Em495/520) protocol (PerkinElmer-Envision 2104 multilabel plate reader).

[2] = Mouse pharmacokinetic study, oral administration; format: in vivo; conditions: male, mouse plasma, PO at 5 mg/kg; for half-life: read-out: Half-life t1/2; for Cmax: read-out: Maximum plasma concentration Cmax; for AUC(0-inf): read-out: Total systemic exposure AUCinf
Protocol: The following example describes the methods used to evaluate the pharmacokinetics of TYK2 inhibitors in vivo following dosing of a compound of the invention.
The pharmacokinetics of test compounds were evaluated in either male CD-1 mice or male C57BL/6 mice when administered by oral gavage and IV bolus injection. The animals were allowed free access to food and water before administration. The plasma samples were analyzed by LC-MS/MS and the concentration of test compound at each time point was determined by linear regression. Pharmacokinetic parameters were calculated from the plasma concentrations by non-compartmental modeling using WinNonlin 8.2.
Oral composition. To prepare a pharmaceutical composition for oral delivery, the test articles described herein were dissolved in DMSO and then mixed with necessary volume of PEG400 followed by 0.9% sterile saline or 5% dextrose in water or 5% Kolliphor HS 15 in saline to provide the final concentrations of 0.5 mg/mL or 1 mg/mL (Table 8). The resultant mixtures were suitable for oral administration.
The PK parameters measured in mouse plasma after treatment with TYK2 inhibitor compounds via PO (oral administration) at 5 mg/kg are summarized below in Tables 9-11.

T1 sequence (P29597 589-875 limits assumed): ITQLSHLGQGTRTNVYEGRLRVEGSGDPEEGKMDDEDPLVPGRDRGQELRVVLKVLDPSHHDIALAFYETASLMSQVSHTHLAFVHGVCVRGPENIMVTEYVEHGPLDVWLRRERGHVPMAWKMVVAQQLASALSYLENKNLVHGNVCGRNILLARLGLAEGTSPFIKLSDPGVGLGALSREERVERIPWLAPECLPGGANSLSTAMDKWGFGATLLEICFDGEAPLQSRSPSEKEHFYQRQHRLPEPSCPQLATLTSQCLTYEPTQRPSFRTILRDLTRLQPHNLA

Structure (SMILES)	Ligand Efficiency [1]	half-life [2]	Cmax [2]	AUC(0-inf) [2]
Cc1nc(Nc2cc(Nc3ncccc3S(C)(=O)=O)ncn2)ccc1[C@H](C)N1CC2(COC2)C1 (stereo in doubt) [Compound 12, N^4-(5-(1-(2-oxa-6-azaspiro[3.3]heptan-6-yl)ethyl)-6-methylpyridin-2-yl)-N^6-(3-(methylsulfonyl)pyridin-2-yl)pyrimidine-4,6-diamine]	††† (†††: >0.39)	< 1 h	> 1500 ng/mL	1000 to 2000 ng·h/mL
Cc1ccnc(Nc2cc(Nc3ccccc3S(C)(=O)=O)ncn2)c1 [Compound 44, N^4-(4-methylpyridin-2-yl)-N^6-(2-(methylsulfonyl)phenyl)pyrimidine-4,6-diamine]	††† (†††: >0.39)	> 1.5 h	< 800 ng/mL	< 1000 ng·h/mL
CC(c1ccc(Nc2cc(Nc3ncccc3S(C)(=O)=O)ncn2)nc1)N1CCCC1 (stereo in doubt) [Compound 15, (R)—N^4-(3-(methylsulfonyl)pyridin-2-yl)-N^6-(5-(1-(pyrrolidin-1-yl)ethyl)pyridin-2-yl)pyrimidine-4,6-diamine]	††† (†††: >0.39)	–	–	–
Cc1cccc(Nc2cc(Nc3ccncc3C(N)=O)ncn2)n1 [Compound 51, 4-((6-((6-methylpyridin-2-yl)amino)pyrimidin-4-yl)amino) nicotinamide]	††† (†††: >0.39)	–	–	–
CC(NC1COC1)c1ccc(Nc2cc(Nc3ccccc3S(C)(=O)=O)ncn2)nc1 (stereo in doubt) [Compound 40, (R)—N^4-(2-(methylsulfonyl)phenyl)-N^6-(5-(1-(oxetan-3-ylamino)ethyl)pyridin-2-yl)pyrimidine-4,6-diamine]	††† (†††: >0.39)	–	–	–
CS(=O)(=O)c1cccnc1Nc1cc(Nc2ccc3c(n2)CCCC3N2CC3(COC3)C2)ncn1 (stereo in doubt) [Compound 5, (R)—N^4-(5-(2-oxa-6-azaspiro[3.3]heptan-6-yl)-5,6,7,8-tetrahydroquinolin-2-yl)-N^6-(3-(methylsulfonyl)pyridin-2-yl)pyrimidine-4,6-diamine]	–	> 1.5 h	> 1500 ng/mL	> 2000 ng·h/mL
CS(=O)(=O)c1cccnc1Nc1cc(Nc2ccc(N3CCN(C4CC4)CC3)cn2)ncn1 [Compound 7, N^4-(5-(4-cyclopropylpiperazin-1-yl)pyridin-2-yl)-N^6-(3-(methylsulfonyl)pyridin-2-yl)pyrimidine-4,6-diamine]	††† (†††: >0.39)	–	–	–
Cc1cccc(Nc2cc(Nc3cccnc3C(N)=O)ncn2)n1 [Compound 50, 3-((6-((6-methylpyridin-2-yl)amino)pyrimidin-4-yl)amino) picolinamide]	††† (†††: >0.39)	–	–	–
Cc1cccc(Nc2cc(Nc3ccccc3S(C)(=O)=O)nc(C)n2)n1 [Compound 56, 2-methyl-N^4-(6-methylpyridin-2-yl)-N^6-(2-(methylsulfonyl)phenyl)pyrimidine-4,6-diamine]	† (†: <0.37)	–	–	–
CS(=O)(=O)c1ccccc1Nc1cc(NC(=O)C2CC2)ncn1 [Compound 69, N^4-(cyclopropylcarbonyl)-N^6-(2-(methylsulfonyl)phenyl)pyrimidine-4,6-diamine]	††† (†††: >0.39)	–	–	–
Cc1cnnc(Nc2cc(Nc3ccccc3C(N)=O)ncn2)c1 [Compound 47, 2-((6-((5-methylpyridazin-3-yl)amino)pyrimidin-4-yl)amino)benzamide]	††† (†††: >0.39)	–	–	–
Cc1cc(Nc2cc(Nc3ncccc3S(C)(=O)=O)ncn2)ncc1NC1(C)COC1 [Compound 23, N^4-(4-methyl-5-((3-methyloxetan-3-yl)amino)pyridin-2-yl)-N^6-(3-(methylsulfonyl)pyridin-2-yl)pyrimidine-4,6-diamine]	††† (†††: >0.39)	–	–	–
Cc1cccc(Nc2cc(Nc3ncccc3C(N)=O)ncn2)n1 [Compound 52, 2-((6-((6-methylpyridin-2-yl)amino)pyrimidin-4-yl)amino) nicotinamide]	††† (†††: >0.39)	–	–	–
COc1ccnc(Nc2cc(Nc3ccc(C(C)N4CC5(COC5)C4)cn3)ncn2)c1S(C)(=O)=O (stereo not drawn) [Compound 76, N^4-(5-(1-(2-oxa-6-azaspiro[3.3]heptan-6-yl)ethyl)pyridin-2-yl)-N^6-(4-methoxy-3-(methylsulfonyl)pyridin-2-yl)pyrimidine-4,6-diamine]	† (†: <0.37)	–	–	–
C[C@@H](c1ccc(Nc2cc(Nc3ncccc3S(C)(=O)=O)ncn2)nc1)N1CC2(CCOC2)C1 [Compound 32, (S)—N^4-(5-(1-(6-oxa-2-azaspiro[3.4]octan-2-yl)ethyl)pyridin-2-yl)-N^6-(3-(methylsulfonyl)pyridin-2-yl)pyrimidine-4,6-diamine]	††† (†††: >0.39)	–	–	–
Cn1ccc(Nc2cc(Nc3ccccc3S(C)(=O)=O)ncn2)n1 [Compound 66, N^4-(1-methyl-1H-pyrazol-3-yl)-N^6-(2-(methylsulfonyl)phenyl)pyrimidine-4,6-diamine]	††† (†††: >0.39)	–	–	–
Cc1cccc(Nc2cc(Nc3ccccc3NS(C)(=O)=O)ncn2)n1 [Compound 53, N-(2-(6-(6-methylpyridin-2-ylamino)pyrimidin-4-ylamino)phenyl) methanesulfonamide]	††† (†††: >0.39)	–	–	–
Cc1nccc(Nc2cc(Nc3ccccc3C(N)=O)ncn2)n1 [Compound 48, 2-((6-((2-methylpyrimidin-4-yl)amino)pyrimidin-4-yl)amino)benzamide]	††† (†††: >0.39)	–	–	–
CS(=O)(=O)c1cccnc1Nc1cc(Nc2cccc(C(F)(F)F)n2)ncn1 [Compound 19, N^4-(3-(methylsulfonyl)pyridin-2-yl)-N^6-(6-(trifluoromethyl)pyridin-2-yl)pyrimidine-4,6-diamine]	††† (†††: >0.39)	–	–	–
CC(c1ccc(Nc2cc(Nc3ncccc3S(C)(=O)=O)ncn2)nc1C(F)(F)F)N1CC2(COC2)C1 (stereo in doubt) [Compound 11, (R)—N^4-(5-(1-(2-oxa-6-azaspiro[3.3]heptan-6-yl)ethyl)-6-(trifluoromethyl)pyridin-2-yl)-N^6-(3-(methylsulfonyl)pyridin-2-yl)pyrimidine-4,6-diamine]	–	> 1.5 h	800 to 1500 ng/mL	> 2000 ng·h/mL
CC(c1ccc(Nc2cc(Nc3ncc(C4COC4)cc3S(C)(=O)=O)ncn2)nc1)N1CC2(COC2)C1 (stereo not drawn) [Compound 78, N^4-(5-(1-(2-oxa-6-azaspiro[3.3]heptan-6-yl)ethyl)pyridin-2-yl)-N^6-(3-(methylsulfonyl)-5-(oxetan-3-yl)pyridin-2-yl)pyrimidine-4,6-diamine]	† (†: <0.37)	–	–	–
C[C@@H](c1ccc(Nc2cc(Nc3ncc(Cl)cc3S(C)(=O)=O)ncn2)nc1)N1CC2(COC2)C1 [Compound 14, (S)—N^4-(5-(1-(2-oxa-6-azaspiro[3.3]heptan-6-yl)ethyl)pyridin-2-yl)-N^6-(5-chloro-3-(methylsulfonyl)pyridin-2-yl)pyrimidine-4,6-diamine]	††† (†††: >0.39)	–	–	–
Cc1cccc(Nc2cc(Nc3ccncc3S(C)(=O)=O)ncn2)n1 [Compound 60, N^4-(6-methylpyridin-2-yl)-N^6-(3-(methylsulfonyl)pyridin-4-yl)pyrimidine-4,6-diamine]	††† (†††: >0.39)	–	–	–
